Experimental findings from article PMC9045377, “CpxA Phosphatase Inhibitor Activates CpxRA and Is a Potential Treatment for Uropathogenic Escherichia coli in a Murine Model of Infection” (Microbiology Spectrum, 2022) are described below.

The nature of data set [1]: Pharmacokinetics of compound 6 in mice: plasma, urine, bladder, kidneys by HPLC-MS/MS. The data set is classed as in vivo, female CBA/J mice. As to conditions: for concentration at 52 h / concentration at 48 h: subcutaneous; for concentration at 52 h: 100 mg/kg s.c. once a day at 0, 24, 48 h; for concentration at 48 h: 100 mg/kg s.c. once a day, sample just prior to the 48-h injection. As for the experimental part: We developed a high-performance liquid chromatography-tandem mass spectrometry (HPLC-MS/MS) assay to measure compound 6 with a lower limit of quantification of 1 ng/mL. Single-dose PK parameters of compound 6 were determined in female CBA/J mice (n = 15) given 100 mg/kg s.c. dissolved in the vehicle. Blood was obtained from groups of 3 mice 1, 2, 4, 8, and 24 h postinjection.
As effective antimicrobials must achieve concentrations that exceed their MICs, we next determined whether compound 6 achieved plasma, kidney, bladder, and urinary concentrations in excess of its peak activating concentration of 10 μM in the CpxR reporter assay. […] Blood and urine samples were obtained just prior to the 48-h injection and at 52 h, 4 h after the final dose; we were only able to recover 2 urine samples at those time points. At 52 h, the animals were sacrificed, and tissue levels of compound 6 were determined in the bladder and kidneys. The mean peak and trough levels of compound 6 were 18.6 ± 3.2 μM and 9.6 ± 1.9 μM in the plasma and 344 μM and 151.7 μM in the urine, respectively. The mean tissue levels of compound 6 in the bladder and kidneys were 203 ± 28 μM and 48 ± 4 μM, respectively. Thus, compound 6 achieved levels in the urine, bladder, and kidneys that were ∼5- to 34-fold higher than its peak activating concentration.
Compound 6 was quantified by the IU Simon Comprehensive Cancer Center Clinical Pharmacology Analytical Core from mouse plasma and mouse urine using temazepam (TMP) as the internal standard and HPLC-MS/MS (5500 QTRAP; AB Sciex, Framingham, MA). In brief, compound 6 and TMP were separated by a gradient mobile phase (acetonitrile, 5 mM ammonium acetate) with a Restek Ultra C8 50 by 4.6 mm 5-micron column. The mass spectrometer utilized an electrospray ionization probe run in positive mode. The multiple reaction monitoring (MRM) Q1/Q3 (m/z) transitions for compound 6 and TMP were 187.9/146.0 and 301.1/254.9, respectively. Plasma or urine samples (20 μL) were transferred to glass culture tubes, TMP (20 μL of 0.1 ng/μL) was added as the internal standard, and the extraction was performed by the addition of 2 mL of methyl tertiary butyl ether. The samples were then vortexed, centrifuged, and the organic layer was transferred to a clean glass culture tube and evaporated to dryness. The samples were then reconstituted with 50 μL of the gradient mobile phase, and a 10-μL aliquot was injected to the HPLC-MS/MS. The standard curves were prepared using naive mouse plasma or naive mouse urine as the matched matrix and was linear from 1 to 1,000 ng/mL.
Compound 6 was quantified from the bladder and kidneys using a slightly modified method from the plasma sample analysis. Briefly, the tissue was weighed and then transferred to a polypropylene tube. Phosphate-buffered saline (PBS) (pH 7.4) was added to the tissue to bring the total volume to 0.5 mL (assumption 1 g = 1 mL). The tissue was homogenized using a TissueRuptor with a single use disposable probe. An aliquot (0.4 mL) was transferred to a clean polypropylene tube and temazepam (20 μL of 0.1 ng/μL) was added as the internal standard. The extraction procedure and HPLC-MS/MS conditions were the same as for the plasma samples. The standard curve was prepared using phosphate-buffered saline and was linear from 0.04 to 40 ng/sample.

In another data set the test system is CFT073. Kind of data set: Growth of CFT073 in human urine (OD600). The data set is classed as cell-based, Escherichia coli. As to conditions: 150 μM, 5 h.
In a further data set the test system is E. coli CFT073 proteome. The data set is described as follows: Label-free quantitative proteomics of CFT073 grown in human urine (LC-MS/MS). As to conditions: 150 μM, 5 h. The data set is classed as cell-based, Escherichia coli. As for the experimental part:
E. coli CFT073 and CFT073ΔcpxA::cat were cultured overnight at 37°C in 5 mL of LB medium overnight with shaking. Bacteria were pelleted, washed twice in PBS, and suspended in 1 mL of PBS. Cells were then suspended in 10 mL of filter-sterilized pooled human urine obtained from 4 healthy female volunteers as described ([41]) to an OD600 of ∼0.02. Urine containing CFT073 was treated either with 150 mM compound 26 dissolved in 10 μL of DMSO to reach a final concentration of 150 μM or 10 μL of DMSO; urine containing CFT073ΔcpxA::cat was treated with 10 μL of DMSO. After 5 h of incubation, cultures were split into 5-mL aliquots, centrifuged, and the pellets were washed once with PBS and frozen at −80°C. One pellet from 4 independent experiments was used to detect CpxR-P using a Phos-Tag gel and Western blotting with an anti-MBP-CpxR antibody obtained from Thomas Silhavy as previously described ([31]). Densitometry values were determined using Photoshop 2021 (version 22.4.3), and the ratio of CpxR-P to CpxR was analyzed by one-way ANOVA adjusted for multiple comparisons using the Tukey procedure.
For label-free quantitative proteomics, cell pellets from 5 independent experiments were subjected for protein extraction followed by liquid chromatography-tandem mass spectrometry (LC-MS/MS). Sample preparation for LC-MS/MS analysis and proteomics pipeline was followed as described previously ([42]). In brief, bacteria were pelleted from urine cultures, and the pellets were solubilized in 1 mL of 8 M urea lysis buffer. Equal amounts of proteins (100 μg) were subjected for overnight trypsin/LysC (V5071; Promega) digestion. One microgram of bovine serum albumin (BSA) was added to each sample as an internal control prior to in-solution digestion. LC-MS/MS analysis was performed on a Dionex UltiMate 3000 (Thermo Fisher Scientific) system connected to a Q-Exactive HF-X mass spectrometer (Thermo Fisher Scientific). Detail settings of the LC-MS/MS analysis was described previously ([42]).
Peptide spectrum matching of MS/MS spectra was searched against the UniProt E. coli CFT073-UPEC database (TaxID 199310) using the Sequest algorithm within Proteome Discoverer version 2.4 software (Thermo Fisher Scientific). The Sequest database search was performed with the following parameters: trypsin enzyme cleavage specificity, 2 possible missed cleavages, 10 ppm mass tolerance for precursor ions, 0.02 Da mass tolerance for fragment ions. Search parameters permitted dynamic modification of methionine oxidation (+15.9949 Da) and static modification of carbamidomethylation (+57.0215 Da) on cysteine. Peptide assignments from the database search were filtered to a 1% false discovery rate. The relative label-free quantitative and comparative among the samples were performed using the Minora algorithm and Proteome Discoverer 2.4 software. Differential abundance of proteins between conditions was defined as a 1.5-fold change in relative abundance with an adjusted P value of <0.05.

Setting [2] is: threshold 1.5-fold, adjusted P <0.05.

Each structure is given as a SMILES string. Where “and” joins values, the source holds several entries; their conditions need not be identical. Identical values can stand only once. Like-named read-outs stand apart in the source and are kept apart here.

For the compound `NC1CCCc2c1[nH]c1ccc(F)cc21` (centres unmarked) [compound 6], the concentration at 52 h in data set [1] (female, CBA/J, mouse, bladder, at 52 h, read-out: mean tissue level in bladder) came out at 203 ± 28 µM; in data set [1] (female, CBA/J, mouse, kidneys, at 52 h, read-out: mean tissue level in kidneys), 48 ± 4 µM; in data set [1] (female, CBA/J, mouse, plasma, sample at 52 h, read-out: mean peak level in plasma), 18.6 ± 3.2 µM; in data set [1] (female, CBA/J, mouse, urine, sample at 52 h, 2 samples, read-out: mean peak level in urine) it was 344 µM. For the same compound, the concentration at 24 h in data set [1] (female, CBA/J, mouse, plasma, sc, single dose 100 mg/kg s.c., read-out: plasma concentration at 24 h, mean ± SD) is 2390 ng/mL and 11.7 µM. For the same compound, the Tmax in data set [1] (female, CBA/J, mouse, plasma, sc, single dose 100 mg/kg s.c., read-out: time of peak plasma concentration) turned out to be 4 h. Further, the concentration at 48 h in data set [1] (female, CBA/J, mouse, plasma, read-out: mean trough level in plasma) amounted to 9.6 ± 1.9 µM; in data set [1] (female, CBA/J, mouse, urine, 2 samples, read-out: mean trough level in urine), 152 µM. For the same compound, the “peak plasma concentration, mean ± SD” value in data set [1] (single dose 100 mg/kg s.c., at 4 h, 100 mg/kg) was 3,305 ± 696 ng/mL and 16.2 ± 3.4 μM.
For the compound `N[C@@H]1CCCc2c1[nH]c1cc(F)c(F)cc21` [compound 26], the “effect on bacterial growth” value with CFT073 is reported as “does not inhibit bacterial growth”. Further, the “OD600 of treated CFT073, mean ± SD” value with CFT073 (5 independent experiments) amounted to 0.52 ± 0.2. Also, in the data set with E. coli CFT073 proteome, the “additional higher-abundance proteins vs CFT073 control only” value is recorded as 27, the “additional higher-abundance proteins vs CFT073ΔcpxA::cat control only” value was determined as 28, the “additional lower-abundance proteins vs CFT073 control only” value is listed as 12 and the “additional lower-abundance proteins vs CFT073ΔcpxA::cat control only” value is reported as 10. Besides, in the data set with E. coli CFT073 proteome (setting [2]), the “number of higher abundance proteins vs both controls” value worked out at 42 and the “number of lower abundance proteins vs both controls” value was 53.
